In patent US7524487B2, “Compositions and methods for modulating interleukin-10” (University of Maryland, priority 2005, dated 2009):

Experiments:
IL-10 promoter = test: ChIP of histone H3 phosphorylation at the IL-10 promoter in stimulated BMMφ; assay type: cell-based, mice
Description: BMMφ were stimulated with medium (open bars), LPS (solid bars) or E-IgG+LPS (striped bars) for 15 minutes (A), or the indicated times (B) and ChIP assays were carried out as described in Materials and Methods. Immunoprecipitations utilized antibodies specific to phospho-H3 (left panel) or acetyl-H3 (right panel). A. conventional RT-PCR and B. real time PCR were carried out using IL-10 promoter or IL-12p40 promoter specific primers. For real time PCR, samples were normalized to input DNA controls.
Cells were pretreated with PD98059 (10 μM), SB203580 (1 μM) or medium for 30 min then stimulated with medium (open bar), IgG-OVA (dotted bar), LPS (solid bar), or both (striped bars) for 40 min. ChIP analysis was carried out using a phospho-H3 specific Ab. A. Conventional RT-PCR was carried out using IL-10 promoter or IL-12p40 promoter specific primers. B. Real time PCR analysis of samples obtained in A. Samples were normalized to input DNA controls.
FIG. 22 is a graph showing Inhibition of histone modifications by blocking ERK. BMMφ were pre-treated with PD98059 (15 μM) (solid bars) or drug vehicle (open bars) for 1 hour and then stimulated with IC plus LPS (10 ng/mL). Cross-linked chromatin fragments were immunoprecipitated with antibody to phosphorylated histone H3 at Ser 10 or antibody to Sp1. The DNA was purified and analyzed for the presence of IL-10 promoter sequences corresponding to nucleosome −2 by QRT-PCR. The data were plotted graphically as the percentage change relative to drug vehicle (IC/LPS) at 30 min post-stimulation for histone H3 phosphorylation, and at 45 min post-stimulation for Sp1 recruitment. One representative from two independent experiments is presented.
Chromatin immunoprecipitation (ChIP). ChIPs were carried out using the ChIP Assay kit following the manufacturer's protocol (Upstate USA, Inc., Lake Placid, N.Y.). Briefly, 1×10^6 BMMφ were plated overnight in 6-well plates. Cells were stimulated as described in Figure Legends then fixed for 10 min at 37° C. in paraformaldehyde (1% final concentration). […]

[1] = system: bone marrow derived macrophages (BMMφ); test: Cytokine ELISA on supernatants of stimulated bone marrow derived macrophages (LPS ± E-IgG)

Structure (SMILES): COc1cccc(-c2cc(=O)c3ccccc3o2)c1N [PD98059]
- histone H3 Ser 10 phosphorylation at IL-10 promoter nucleosome −2 (ChIP, QRT-PCR) (IL-10 promoter; BMMφ pre-treated with PD98059 15 μM for 1 hour, IC plus LPS 10 ng/mL, 30 min post-stimulation, relative to drug vehicle): substantial loss
- histone H3 phosphorylation at the IL-10 promoter induced by immune complex (ChIP) (IL-10 promoter; BMMφ pretreated 30 min with PD98059 10 μM or SB203580 1 μM, then IgG-OVA + LPS for 40 min): completely abrogated
- IL-10 secretion (ELISA) ([1]; BMMφ pretreated 30 min with PD98059 10 μM, SB203580 1 μM or JNK inhibitory peptide 1 μM, then LPS 10 ng/ml ± E-IgG, supernatants after 20 h): substantial inhibition
- IL-12 (p40) production (ELISA) ([1]; BMMφ pretreated 30 min with inhibitor, then LPS 10 ng/ml ± E-IgG, 20 h): actually increased
- superinduction (augmentation) of IL-10 production caused by immune complexes ([1]; BMMφ, LPS 10 ng/ml + E-IgG versus LPS alone, 20 h, inhibitor pretreatment or 100 nM siRNA): appeared to prevent
